The results in this text go back to US20110306554A1, “PEPTIDE CAPABLE OF BINDING TO IMMUNOGLOBULIN” (priority 2009, published 2011).

Data set [1] concerns rat collagen-arthritis model. The data set is described as follows: Arthritis suppressing effects on rat collagen-arthritis model. Type of data set: in vivo, rats. As for the experimental part: A rat collagen-arthritis model was used to examine arthritis suppressing effects of a peptide, referred to as peptide R13.
Female Lewis rats were primed with 500 μg of type II bovine-derived collagen and boosted with 100 μg of the same collagen at 7 and 14 days post priming, to induce collagen arthritis. Peptide R13, a scramble peptide (dYdPdYGdFdL), or methotrexate was administered once a day for a period of 25 consecutive days from 12 days after arthritis was fully developed, and arthritis suppressing effect was examined in terms of clinical score. Methotrexate was administered at a dose of 0.15 mg/kg as a control drug.
The required amount was calculated for each peptide, based on the animal weight. Physiological saline was gradually added to prepare suspensions, to make concentrations of 100 and 10 mg/ml.
The clinical score of each limb of the extremities in all cases was observed every third day from day 12, on which arthritis was developed, up to day 36, with day 0 being the day of priming with type II bovine-derived collagen. Observations were according to the following criteria, with the total score for the extremities being set to a maximum of 12. […]

In data set [2] the test system is binding between human C1q protein and human immunoglobulin (IgG). The data set is described as follows: Inhibition of binding between C1q and immunoglobulin (C1q spotted on nitrocellulose membrane, ALP-labeled IgG). The conditions noted are these: peptide concentration 500 μg/ml, 400 ng human C1q per spot. The text has this: Peptides were synthesized by GL Biochem (Shanghai), which have the following amino acid sequences: the amino acid sequence depicted in SEQ ID NO: 2 (peptide R2); a shorter amino acid sequence than this peptide, PGLYYF (SEQ ID NO: 1) (peptide R1); and amino acid sequences including the amino acid sequence depicted in SEQ ID NO: 2, SGKFTCKVPGLYYFT (SEQ ID NO: 3) (peptide R3), FTCKVPGLYYFTYHA (SEQ ID NO: 4) (peptide R4), STGKFTCKVPGLYYF (SEQ ID NO: 5) (peptide R5), and CKVPGLYYFVYHASH (SEQ ID NO: 7) (peptide R6). Each peptide was dissolved in DMSO to make a concentration of 10 mg/ml and stored.
Human C1q protein (Carbiochem) was dissolved in 10 mM HEPES, 300 mM NaCl, 40% glycerol (pH 7.2) to prepare a 200 μg/ml solution of human C1q protein. The solution of human C1q protein was spotted at a volume of 2 μl (400 ng) per spot onto a nitrocellulose membrane of a size of 5 mm by 15 mm (Hybond C; Amersham), which was then air-dried at room temperature for about one hour. The nitrocellulose membrane was soaked in TBS, incubated for 5 minutes, and blocked at room temperature for one hour using TBS (20 mM Tris-HCl, pH 7.5, 150 mM NaCl) containing 5% of a blocking agent (Amersham ECL blocking reagent; GE Healthcare). […]

Data set [3] deals with Monoclonal antibody cocktail-induced arthritis mice. Briefly: Arthritis suppressing effects on arthritis-induced mice, Part 4. The format is in vivo. The conditions noted are these: intraperitoneal 100 mg/kg once a day from day 4; methotrexate 0.1 mg/kg. The method, then:
Monoclonal antibody cocktail-induced arthritis mice were used to examine arthritis suppressing effects of peptides which are indicated as R13 in the section (3) in Example 2 and as R19 and R21 in the section (4) in Example 2. Arthritis was caused by intravenous administration of 2 mg/mouse of an arthritis-inducing monoclonal antibody cocktail and three days later, intraperitoneal administration of 50 μg/mouse of LPS. The peptides […] days from four days after the administration of the arthritis-inducing monoclonal antibody cocktail, and arthritis suppressing effect was examined in terms of clinical score and hind-limb volume determination.
The required amount was calculated for each peptide, based on the animal weight. […]
Measurement of body weight of animals was made on days 0, 3, 6, 9, 12, and 14 during the study period, with day 0 being the day of administration of the arthritis-inducing monoclonal antibody cocktail. Observation of general condition was made on a daily basis. […]
Results of examinations were expressed by mean value±standard error and analyzed using EXSAS (Version 7.1.6, Arm Systex Co., Ltd.). […] Quantitative data, such as body weights and leg volumes, were subjected to Bartlett's test, followed by Dunnett's multiple comparison test when the variance was uniform or Steel's multiple comparison test when the variance was not uniform.

Data set [4] concerns type III allergic (Arthus) reaction-induced rats. The data set is described as follows: Immune-complex disease suppression in type III allergic (Arthus) reaction-induced rats, Part 2. Type of data set: in vivo. The method, then:
Using forty-five 7-week-old male Slc:Wistar rats, examinations were made on peptides R13 and R19, in two series of examinations, each using a different method of administration (intraperitoneal administration and tail vein administration). Acclimation was carried out by giving normal solid chow CRF-1 for a period of 6 or 8 days. The back of the animals was shaved on the day prior to administration, and a mixed solution of OVA and Evans blue dye was administered into the tail vein on the day of administration. Each peptide solution was administered intraperitoneally or into the tail vein 30 minutes or 50 minutes after the administration of the mixed solution of OVA and Evans blue dye, respectively. For intracutaneous administration of an anti-OVA solution, […] was intracutaneously administered in the back of animals at a dose of 0.1 ml/site 30 minutes or 10 minutes after the administration of the tested substance in the case of intraperitoneal or intravenous administration, respectively, so as to generate a local Arthus reaction. After the reaction was allowed to be generated for 4 hours, the animals were euthanized, the blood was removed thoroughly, and then the dorsal skin was exfoliated. The Arthus reaction sites on the exfoliated skin were punched out, and the Evans blue dye was extracted from the punched skin overnight. The amount of dye leakage was quantified by measuring absorbance for the Evans blue dye with a spectrophotometer and using a calibration curve.
A suspension was prepared by placing a predetermined amount of hydrocortisone into a mortar, grinding it with pestle, and then adding physiological saline to make the final concentration of 10 mg/ml.
A predetermined amount of each peptide (peptides R13 and R19) was dissolved in physiological saline to make a 20 mg/ml solution. A 2 mg/ml solution was prepared by diluting the 20 mg/ml solution 10-fold with physiological saline. A 5 mg/ml solution was prepared by dissolving each peptide in a predetermined amount in physiological saline to make a prepared solution.
A mixed solution of OVA and Evans blue dye was administered into the tail vein at a dose of 2 ml/kg. Each peptide solution was administered intraperitoneally or into the tail vein 30 minutes or 50 minutes after the administration of the mixed solution of OVA and Evans blue dye, respectively. […]
Several cuttings were made in the skin strips that were punched out with a punch. […] The amount of dye leakage was calculated from a calibration curve of known amounts of the dye.
The mean value (mean)±standard deviation (SD) for each group was calculated with body-weight measurements and amounts of dye leakage. […]

Where [5] appears, read: tail vein administration, 10 mg/kg.

Non-standard residues stand in square brackets, D forms with d. Residues, ends and D or L forms follow the SMILES beside them. No end group written: not given here.

Consider `CC(C)C[C@@H](NC(=O)CNC(=O)[C@H]1CCCN1)C(=O)N[C@H](Cc1ccc(O)cc1)C(=O)N[C@H](Cc1ccc(O)cc1)C(=O)N[C@H](Cc1ccccc1)C(=O)O` [R13, dPGdLdYdYdF] (H-[dP]G[dL][dY][dY][dF]-OH), for which the “abnormalities in general condition and effects on body weight” value in data set [1] (100 and 10 mg/kg) is “abnormalities in general condition and effects on body weight were not observed”.

“CKAPGLYYF (Immunoglobulin binding peptide) [R10]”: the “inhibition of the binding between C1q and immunoglobulin” value in data set [2] is recorded as “inhibit the binding”.

As for “STAKFTCKVPGLYYF (Immunoglobulin binding peptide) [R11]”, the “inhibition of the binding between C1q and immunoglobulin” value in data set [2] was “inhibit the binding”.

For “dSdKdVdPGdLdYdYdF ([dS][dK][dV][dP]G[dL][dY][dY][dF]) [R19]”, the “arthritis-suppressing effect (clinical score) compared with methotrexate” value in data set [3] is recorded as “arthritis-suppressing effect comparable to or greater than that of methotrexate”. Moreover, the “suppression (decrease of dye leakage) compared to negative control” value in data set [4] (intraperitoneal administration, 100 mg/kg) is listed as 50%; in data set [4] (setting [5]) it was “about 50%”. In addition, the “suppression effect (dye leakage) compared to negative control” value in data set [4] (intraperitoneal administration, 10 or 100 mg/kg) was “suppressed”; in data set [4] (setting [5]), “suppressed”.

For the compound “dYdPdYGdFdL [scramble peptide, reference compound]”, the “suppression effect (clinical score)” value in data set [1] (negative control peptide, once a day, 25 consecutive days) is recorded as “did not exhibit any suppression effects”.
